Twelve compounds from ChEMBL document CHEMBL5608163, “Structure modification of anoplin for fighting resistant bacteria” (Eur J Med Chem, 2024) can be followed below.

For data set [1], the system named is Staphylococcus aureus. Put plainly: Antimicrobial activity against Staphylococcus aureus ATCC 25923 assessed as reduction in microbial growth incubated for 18 hrs by CLSI-based Mueller-Hinton broth dilution method. The class given is functional. In general terms: Dilution methods test growth across graded concentrations, often in twofold steps.
Data set [2] concerns Bacillus subtilis. Nature of the data set: Antibacterial activity against Bacillus subtilis ATCC 23857 assessed as reduction in bacterial growth incubated for 18 hrs by CLSI-based Mueller-Hinton broth dilution method. The data set is classed as functional.
Data set [3] has as its system Staphylococcus epidermidis. Put plainly: Antibacterial activity against Staphylococcus epidermidis ATCC 12228 assessed as reduction in bacterial growth incubated for 18 hrs by CLSI-based Mueller-Hinton broth dilution method. The data set is classed as functional.
In data set [4] the test system is Escherichia coli. Put plainly: Antibacterial activity against Escherichia coli ML-35 ATCC 43837 assessed as reduction in bacterial growth incubated for 18 hrs by CLSI-based Mueller-Hinton broth dilution method. The class given is functional.
For data set [5], the system named is Pseudomonas aeruginosa. Put plainly: Antibacterial activity against Pseudomonas aeruginosa ATCC 27853 assessed as reduction in bacterial growth incubated for 18 hrs by CLSI-based Mueller-Hinton broth dilution method. The data set is classed as functional.
For data set [6], the system named is Klebsiella pneumoniae. Put plainly: Antibacterial activity against Klebsiella pneumoniae ATCC 700603 assessed as reduction in bacterial growth incubated for 18 hrs by CLSI-based Mueller-Hinton broth dilution method. The data set is classed as functional.
A further data set concerns Acinetobacter baumannii. Nature of the data set: Antibacterial activity against Acinetobacter baumannii ATCC 19606 assessed as reduction in bacterial growth incubated for 18 hrs by CLSI-based Mueller-Hinton broth dilution method. The data set is classed as functional.
A further data set relates to Erythrocyte. Nature of the data set: Hemolytic activity in mouse erythrocyte assessed as hemolysis incubated for 1 hr by microplate reader analysis. The class given is toxicity, cell-based.
The test system of data set [7] is Bacillus subtilis. Put plainly: Antimicrobial activity against Bacillus subtilis ATCC 23857 assessed as reduction in microbial growth incubated for 18 hrs by Mueller-Hinton Broth based microdilution assay. The data set is classed as functional.
Data set [8] has as its system Klebsiella pneumoniae. Put plainly: Antimicrobial activity against Klebsiella pneumoniae ATCC 700603 assessed as reduction in microbial growth incubated for 18 hrs by Mueller-Hinton Broth based microdilution assay. The class given is functional.
In data set [9] the test system is Pseudomonas aeruginosa. Nature of the data set: Antimicrobial activity against Pseudomonas aeruginosa ATCC 27853 assessed as reduction in microbial growth incubated for 18 hrs by Mueller-Hinton Broth based microdilution assay. The data set is classed as functional.
Data set [10] concerns Staphylococcus aureus. Nature of the data set: Antibacterial activity against Staphylococcus aureus ATCC 25923 assessed as reduction in bacterial growth incubated for 18 hrs by Mueller-Hinton Broth based microdilution assay. The data set is classed as functional.
Data set [11] has as its system Escherichia coli. Nature of the data set: Antibacterial activity against Escherichia coli ATCC 25922 assessed as reduction in bacterial growth incubated for 18 hrs by Mueller-Hinton Broth based microdilution assay. The class given is functional.

≈ marks a conversion by molar mass, not a printed value. Square brackets hold non-standard residues; d marks the D form. Peptide text beside a SMILES is read from it. NMeR = CN[C@@H](CCCNC(=N)N)C(=O)O; NMeL = CN[C@@H](CC(C)C)C(=O)O; NMeK = CN[C@@H](CCCCN)C(=O)O

For orientation: MIC means the lowest concentration found to suppress growth.

For `CCCCCCCCCCCCCCCCC(=O)NCCCC[C@@H](NC(=O)[C@@H](NC(=O)[C@H](CCCNC(=N)N)NC(=O)[C@@H](CCCCN)NC(=O)[C@H](CC(C)C)NC(=O)[C@H](CC(C)C)NC(=O)CN)[C@@H](C)CC)C(=O)N[C@H](C(=O)N[C@@H](CC(C)C)C(=O)N[C@@H](CC(C)C)C(N)=O)[C@@H](C)O`, the minimal inhibitory concentration (MIC) in the data set with Staphylococcus aureus [1] is 64 µM; with Bacillus subtilis [2], 16 µM (≈ 22.5 µg/mL); in data set [3], 32 µM (≈ 45 µg/mL); with Escherichia coli [4] it was 64 µM (≈ 90 µg/mL); in the data set with Pseudomonas aeruginosa [5] it was 64 µM (≈ 90 µg/mL); in the data set with Klebsiella pneumoniae [6], 64 µM (≈ 90 µg/mL). The minimum inhibitory concentration (MIC) in the data set on Acinetobacter baumannii was found to be 16 µM (≈ 22.5 µg/mL). The HC10 in the data set with Erythrocyte came to 16 µM.
For the compound `CCCCCCCCCCCCCCCCC(=O)NCCCC[C@@H](NC(=O)[C@H](CC(C)C)NC(=O)[C@H](CC(C)C)NC(=O)CN)C(=O)N[C@@H](CCCNC(=N)N)C(=O)N[C@H](C(=O)N[C@H](CCCCN)C(=O)N[C@H](C(=O)N[C@@H](CC(C)C)C(=O)N[C@@H](CC(C)C)C(N)=O)[C@@H](C)O)[C@@H](C)CC`, the MIC turned out to be 32 µM in the data set on Staphylococcus aureus [1]; 8 µM (≈ 11.2 µg/mL) with Bacillus subtilis [2]; 64 µM (≈ 90 µg/mL) in data set [3]; 64 µM (≈ 90 µg/mL) in the data set with Escherichia coli [4]; 64 µM (≈ 90 µg/mL) in the data set with Pseudomonas aeruginosa [5]; 128 µM (≈ 180 µg/mL) with Klebsiella pneumoniae [6]. Besides, the minimum inhibitory concentration (MIC) in the data set with Acinetobacter baumannii is 16 µM (≈ 22.5 µg/mL). Further, in the data set on Erythrocyte, the HC10 was more than 16 µM.
As for `CCCCC(=O)NCCCC[C@@H](NC(=O)[C@@H](NC(=O)[C@H](CCCNC(=N)N)NC(=O)[C@@H](CCCCN)NC(=O)[C@H](CC(C)C)NC(=O)[C@H](CC(C)C)NC(=O)CN)[C@@H](C)CC)C(=O)N[C@H](C(=O)N[C@@H](CC(C)C)C(=O)N[C@@H](CC(C)C)C(N)=O)[C@@H](C)O`, the MIC was more than 128 µM in the data set with Staphylococcus aureus [1]; 64 µM (≈ 79.2 µg/mL) in the data set on Bacillus subtilis [2]; 128 µM (≈ 158 µg/mL) in [3]; 128 µM (≈ 158 µg/mL) in the data set on Escherichia coli [4]; 64 µM (≈ 79.2 µg/mL) with Pseudomonas aeruginosa [5]; more than 128 µM with Klebsiella pneumoniae [6]. Moreover, in the data set with Acinetobacter baumannii, the minimum inhibitory concentration (MIC) is more than 128 µM. Besides, the HC10 with Erythrocyte is more than 256 µM.
For `CCCCCCCCCCCCC(=O)NCCCC[C@@H](NC(=O)[C@@H](NC(=O)[C@H](CCCNC(=N)N)NC(=O)[C@@H](CCCCN)NC(=O)[C@H](CC(C)C)NC(=O)[C@H](CC(C)C)NC(=O)CN)[C@@H](C)CC)C(=O)N[C@H](C(=O)N[C@@H](CC(C)C)C(=O)N[C@@H](CC(C)C)C(N)=O)[C@@H](C)O`, the MIC was found to be 4 µM in the data set on Staphylococcus aureus [1]; 2 µM (≈ 2.7 µg/mL) in the data set on Bacillus subtilis [2]; 4 µM (≈ 5.4 µg/mL) in data set [3]; 16 µM (≈ 21.6 µg/mL) in the data set with Escherichia coli [4]; 8 µM (≈ 10.8 µg/mL) with Pseudomonas aeruginosa [5]; 16 µM (≈ 21.6 µg/mL) in the data set with Klebsiella pneumoniae [6]. Moreover, the MIC in the data set on Acinetobacter baumannii is 4 µM (≈ 5.4 µg/mL). Besides, the HC10 with Erythrocyte is 32 µM.
In the case of `CCCCCCCCCCCCCCC(=O)NCCCC[C@@H](NC(=O)[C@@H](NC(=O)[C@H](CCCNC(=N)N)NC(=O)[C@@H](CCCCN)NC(=O)[C@H](CC(C)C)NC(=O)[C@H](CC(C)C)NC(=O)CN)[C@@H](C)CC)C(=O)N[C@H](C(=O)N[C@@H](CC(C)C)C(=O)N[C@@H](CC(C)C)C(N)=O)[C@@H](C)O`, the MIC in the data set on Staphylococcus aureus [1] came to 16 µM; in the data set on Bacillus subtilis [2] it was 8 µM (≈ 11 µg/mL); in data set [3], 4 µM (≈ 5.51 µg/mL); in the data set on Escherichia coli [4], 64 µM (≈ 88.2 µg/mL); in the data set with Pseudomonas aeruginosa [5], 32 µM (≈ 44.1 µg/mL); with Klebsiella pneumoniae [6], 32 µM (≈ 44.1 µg/mL). In addition, the minimum inhibitory concentration (MIC) in the data set with Acinetobacter baumannii came to 8 µM (≈ 11 µg/mL). The HC10 with Erythrocyte came to 16 µM.
For the compound `CCCCCCCCC(=O)NCCCC[C@@H](NC(=O)[C@H](CC(C)C)NC(=O)[C@H](CC(C)C)NC(=O)CN)C(=O)N[C@@H](CCCNC(=N)N)C(=O)N[C@H](C(=O)N[C@H](CCCCN)C(=O)N[C@H](C(=O)N[C@@H](CC(C)C)C(=O)N[C@@H](CC(C)C)C(N)=O)[C@@H](C)O)[C@@H](C)CC`, the minimal inhibitory concentration (MIC) worked out at 16 µM in the data set on Staphylococcus aureus [1]; 4 µM (≈ 5.18 µg/mL) in the data set on Bacillus subtilis [2]; 8 µM (≈ 10.4 µg/mL) in [3]; 32 µM (≈ 41.4 µg/mL) in the data set with Escherichia coli [4]; 32 µM (≈ 41.4 µg/mL) in the data set on Pseudomonas aeruginosa [5]; 128 µM (≈ 166 µg/mL) in the data set on Klebsiella pneumoniae [6]. Moreover, in the data set on Acinetobacter baumannii, the MIC was determined as 32 µM (≈ 41.4 µg/mL). Further, the HC10 in the data set on Erythrocyte is more than 256 µM.
For the compound `CC[C@H](C)[C@H](NC(=O)[C@H](CCCNC(=N)N)NC(=O)[C@H](CCCCN)NC(=O)[C@H](CC(C)C)NC(=O)[C@H](CC(C)C)NC(=O)CN)C(=O)N(C)[C@@H](CCCCN)C(=O)N[C@H](C(=O)N[C@@H](CC(C)C)C(=O)N[C@@H](CC(C)C)C(N)=O)[C@@H](C)O` (H-GLLKRI[NMeK]TLL-NH2), the MIC was 128 µM with Bacillus subtilis [7]; more than 128 µM with Klebsiella pneumoniae [8]; 128 µM with Pseudomonas aeruginosa [9]; more than 128 µM with Staphylococcus aureus [10]; more than 128 µM in the data set on Escherichia coli [11].
For the compound `CC[C@H](C)[C@H](NC(=O)[C@H](CCCNC(=N)N)N(C)C(=O)[C@H](CCCCN)N(C)C(=O)[C@H](CC(C)C)NC(=O)[C@H](CC(C)C)NC(=O)CN)C(=O)N[C@@H](CCCCN)C(=O)N[C@H](C(=O)N[C@@H](CC(C)C)C(=O)N[C@@H](CC(C)C)C(N)=O)[C@@H](C)O` (H-GLL[NMeK][NMeR]IKTLL-NH2), the minimal inhibitory concentration (MIC) with Bacillus subtilis [7], in the data set on Klebsiella pneumoniae [8], in the data set with Pseudomonas aeruginosa [9], with Staphylococcus aureus [10] and in the data set on Escherichia coli [11] was more than 128 µM in each case.
Consider `CC[C@H](C)[C@H](NC(=O)[C@H](CCCNC(=N)N)NC(=O)[C@H](CCCCN)NC(=O)[C@H](CC(C)C)NC(=O)[C@H](CC(C)C)NC(=O)CN)C(=O)N[C@@H](CCCCN)C(=O)N[C@H](C(=O)N(C)[C@@H](CC(C)C)C(=O)N[C@@H](CC(C)C)C(N)=O)[C@@H](C)O` (H-GLLKRIKT[NMeL]L-NH2), for which the MIC with Bacillus subtilis [7] was 128 µM; in the data set with Klebsiella pneumoniae [8] it was more than 128 µM; with Pseudomonas aeruginosa [9], 28 µM; in the data set on Staphylococcus aureus [10], more than 128 µM; in the data set with Escherichia coli [11] it was more than 128 µM.
In the case of `CC[C@H](C)[C@H](NC(=O)[C@H](CCCNC(=N)N)NC(=O)[C@H](CCCCN)N(C)C(=O)[C@H](CC(C)C)NC(=O)[C@H](CC(C)C)NC(=O)CN)C(=O)N(C)[C@@H](CCCCN)C(=O)N[C@H](C(=O)N[C@@H](CC(C)C)C(=O)N[C@@H](CC(C)C)C(N)=O)[C@@H](C)O` (H-GLL[NMeK]RI[NMeK]TLL-NH2), the MIC is more than 128 µM in the data set with Bacillus subtilis [7]; more than 128 µM with Klebsiella pneumoniae [8]; 128 µM in the data set on Pseudomonas aeruginosa [9]; more than 128 µM with Staphylococcus aureus [10]; more than 128 µM in the data set on Escherichia coli [11].
Turning to `CC[C@H](C)[C@H](NC(=O)[C@H](CCCNC(=N)N)NC(=O)[C@H](CCCCN)NC(=O)[C@H](CC(C)C)N(C)C(=O)[C@H](CC(C)C)N(C)C(=O)CN)C(=O)N[C@@H](CCCCN)C(=O)N[C@H](C(=O)N(C)[C@@H](CC(C)C)C(=O)N(C)[C@@H](CC(C)C)C(N)=O)[C@@H](C)O` (H-G[NMeL][NMeL]KRIKT[NMeL][NMeL]-NH2), the MIC with Bacillus subtilis [7] was more than 128 µM; in the data set with Klebsiella pneumoniae [8], more than 128 µM; in the data set with Pseudomonas aeruginosa [9], 128 µM; in the data set with Staphylococcus aureus [10], more than 128 µM; in the data set on Escherichia coli [11], more than 128 µM.
As for `CC[C@H](C)[C@H](NC(=O)[C@H](CCCNC(=N)N)NC(=O)[C@H](CCCCN)NC(=O)[C@H](CC(C)C)NC(=O)[C@H](CC(C)C)NC(=O)CN)C(=O)N[C@@H](CCCCN)C(=O)N[C@H](C(=O)N[C@@H](CC(C)C)C(=O)N(C)[C@@H](CC(C)C)C(N)=O)[C@@H](C)O` (H-GLLKRIKTL[NMeL]-NH2), the MIC with Bacillus subtilis [7] was 64 µM; in the data set with Klebsiella pneumoniae [8] it was more than 128 µM; in the data set with Pseudomonas aeruginosa [9], 32 µM; in the data set on Staphylococcus aureus [10], more than 128 µM; with Escherichia coli [11], more than 128 µM.
